Data taken from patent EP4023291A1, “FAT METABOLISM PROMOTER” (Asahi Group Holdings, Ltd., priority 2019, dated 2021).

Legend:
[1] = molecular target: T1, TRPA1 (Homo sapiens, UniProt O75762); assay: Test 9: TRPA1 activity test, cells with forced expression of TRPA1; type: cell-based; conditions: for Δ RFU in cells with forced expression of TRPA1: maximum values, average ± standard deviation, concentration after adding per Table 7 (10.2-28.2 ppm); for Δ RFU in cells with forced expression of TRPA1 / Δ RFU in non-transformed cells: ratio of maximum ΔRFU values, concentration after adding per Table 7
T1 construct: expressed in transfected cells; host or cells: HEK293T cells, transient transfection with Lipofectamine 2000
Method: In the present test, first, human embryonic HEK293T cells were first suspended in DMEM medium to which penicillin-streptomycin (manufactured by Thermo Fisher Scientific, Inc.) and fetal bovine serum (manufactured by Sigma-Aldrich Co. LLC) were added to reach concentrations of 100 Unit/mL, 100 µg/mL, and 10%, respectively, seeded in a 96-well plate at a volume of 100 µL/well, and cultured under conditions of 5% CO2 and 37°C until a cell density reached 70 to 90%.
Thereafter, the DMEM medium in each well was completely removed, to which OptiMEM medium (manufactured by Thermo Fisher Scientific, Inc.) containing the gene transfer reagent Lipofectamine 2000 (manufactured by Thermo Fisher Scientific, Inc.) and a hTRPA1 gene expression plasmid was added at a volume of 50 µL/well. Then, culture was performed under conditions of 37°C and 5% CO2 for approximately 24 hours to transfer the TRPA1 gene into the HEK293T cells. The contents of Lipofectamine 2000 and the hTRPA1 gene expression plasmid per 50 µL of the OptiMEM medium were 0.3 µL and 400 ng, respectively. The TRPA1 gene can be confirmed with a DNA database such as GenBank.
When the density of the HEK293T cells transfected in the described manner (hereinafter, also referred to as "cells with forced expression of TRPA1") reached 90 to 100%, FLIPR Calcium 6 Assay Kit (manufactured by Molecular Devices, LLC.), a calcium-sensitive fluorescent dye, was added at a volume of 50 µL/well, and culture was performed under conditions of 37°C and 5% CO2 for 2 hours. Here, the expression of TRPA1 on cell membranes was confirmed by response to cinnamaldehyde (manufactured by Wako Pure Chemical Industries, Ltd.), which is a known TRPA1 ligand. DMSO was used for dilution of cinnamaldehyde, and the DMSO concentration in each well was set to 0.1% in view of cytotoxicity.
Ethyl caproate was added to HEPES buffer (10 mM HEPES, 130 mM NaCl, 5 mM KCl, 10 mM glucose, 2 mM CaCl2·2H2O, 1.2 mM MgCl2·6H2O, pH = 7.40), and thus a test solution of Example 9 containing ethyl caproate in a concentration of 255 ppm was obtained. For a negative control (N.C.), HEPES buffer was used as a test solution of Comparative Example 6. Measurement of fluorescence intensity for the cells with forced expression of TRPA1 was initiated, and, 20 seconds thereafter, 50-µL portions of each of the test solutions prepared were added to three wells. After the lapse of a predetermined period of time, the measurement of fluorescence intensity was completed, and ratios of fluorescence intensity at each time after addition of a test solution as the average of fluorescence intensity before addition of a test solution was assumed as 1 (hereinafter, also referred to as "RFU (relative fluorescence units)") were determined from measurements of fluorescence intensity. Further, change rates in RFU before and after addition of a test solution (hereinafter, also referred to as "ΔRFU") were determined at each time after addition of a test solution. Fluorescence intensity was measured by using a FlexStation 3 (manufactured by Molecular Devices, LLC.). The measurement of fluorescence intensity was performed at room temperature, and each test solution was used for adding to wells at room temperature, too.
(§1) In the present test, test solutions of Examples 13 to 28 and Comparative Examples 9 to 14 described later were used in place of the test solutions used in First Testing Method of Test 5. Except that, the amount of change in RFU before and after addition of each test solution (ΔRFU) was determined for cells with forced expression of TRPA1 and non-transformed cells with the same method as First Testing Method of Test 5.
The test solutions of Examples 13 to 28 and Comparative Examples 10 to 14 used in the present test were each obtained by adding a compound listed in Table 7 into HEPES buffer. […]

[2] = tested on: non-transformed cells; assay: Test 9: TRPA1 activity test, non-transformed cells; type: cell-based, human; conditions: maximum values, average ± standard deviation; concentration after adding per Table 7 (10.2-28.2 ppm)
Method: Also for HEK293T cells without transfer of the TRPA1 gene (hereinafter, also referred to as "non-transformed cells"), as a reference, 50 µL of the test solution of Example 9 and 50 µL of the test solution of Comparative Example 6 were added with the same method as performed for the cells with forced expression of TRPA1, and ΔRFU was determined.
as §1
The test solutions of Examples 13 to 28 and Comparative Examples 10 to 14 used in the present test were each obtained by adding a compound listed in Table 7 into HEPES buffer. The octanol/water partition coefficient (log Pow) of each compound listed in Table 7 was calculated with XlogP (Shanghai Institute of Organic Chemistry, Chinese Academy of Sciences, http://WWW.sio-ccbg.ac.cn/software/xlogp3/), which is software using the XlogP3 algorithm. Each test solution was added as 50-µL portions to wells, and the concentrations of the compounds were set to concentrations shown in Table 7. HEPES buffer was used as the test solution of Comparative Example 9 for a negative control (N.C.), and added as 50-µL portions to wells.
Table 7 and Figure 18 show average ± standard deviation of maximum values of ΔRFU. In the present test, SoftMax Pro Vr. 6 (manufactured by Molecular Devices, LLC.) and Excel (manufactured by Microsoft Corporation) were used for data analysis.

T1 sequence (O75762 whole entry): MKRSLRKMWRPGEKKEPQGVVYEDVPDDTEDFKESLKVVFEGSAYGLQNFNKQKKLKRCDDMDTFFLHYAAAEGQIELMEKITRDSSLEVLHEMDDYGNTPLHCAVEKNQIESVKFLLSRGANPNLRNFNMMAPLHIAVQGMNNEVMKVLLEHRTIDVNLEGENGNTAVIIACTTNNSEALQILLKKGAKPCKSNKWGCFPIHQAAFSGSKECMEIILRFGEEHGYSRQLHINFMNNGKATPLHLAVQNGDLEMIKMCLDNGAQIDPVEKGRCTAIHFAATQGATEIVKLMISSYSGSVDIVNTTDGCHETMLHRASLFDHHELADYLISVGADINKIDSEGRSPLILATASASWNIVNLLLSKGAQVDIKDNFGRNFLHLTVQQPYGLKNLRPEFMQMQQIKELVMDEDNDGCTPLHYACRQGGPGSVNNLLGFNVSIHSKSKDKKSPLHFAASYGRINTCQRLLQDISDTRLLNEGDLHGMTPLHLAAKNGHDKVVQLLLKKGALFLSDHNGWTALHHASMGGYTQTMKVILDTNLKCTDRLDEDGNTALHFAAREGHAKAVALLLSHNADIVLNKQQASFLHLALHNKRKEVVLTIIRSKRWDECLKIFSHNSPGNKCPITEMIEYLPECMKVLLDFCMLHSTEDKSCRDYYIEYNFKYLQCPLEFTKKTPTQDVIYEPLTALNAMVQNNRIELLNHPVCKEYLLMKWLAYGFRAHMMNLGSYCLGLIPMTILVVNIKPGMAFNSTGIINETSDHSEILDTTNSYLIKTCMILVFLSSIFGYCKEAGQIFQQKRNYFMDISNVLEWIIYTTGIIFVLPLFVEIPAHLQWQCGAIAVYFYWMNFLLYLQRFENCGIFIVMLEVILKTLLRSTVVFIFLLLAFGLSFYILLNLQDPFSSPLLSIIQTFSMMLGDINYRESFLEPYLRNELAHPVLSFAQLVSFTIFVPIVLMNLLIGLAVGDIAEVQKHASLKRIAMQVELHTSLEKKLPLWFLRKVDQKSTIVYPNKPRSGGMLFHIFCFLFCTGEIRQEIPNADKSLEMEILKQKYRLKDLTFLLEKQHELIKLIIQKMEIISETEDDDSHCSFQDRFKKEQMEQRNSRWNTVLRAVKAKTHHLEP

SMILES | Δ RFU in cells with forced expression of TRPA1 [1] | Δ RFU in cells with forced expression of TRPA1 / Δ RFU in non-transformed cells [1] | Δ RFU in non-transformed cells [2]
CCCCCC(=O)OC [Example 21, Methyl caproate] | 1.2 ± 0.2 | 5.4 | 0.2 ± 0.0
CCCCCCCC(=O)OCC [Example 28, Ethyl caprylate] | 2.3 ± 0.4 | 19.0 | 0.1 ± 0.0
CCCCCC(=O)OCCC(C)C [Example 25, Isoamyl caproate] | 3.0 ± 0.2 | 16.2 | 0.2 ± 0.0
CCOC(C)=O [Comparative Example 10, Ethyl acetate, reference compound] | 0.2 ± 0.1 | 0.7 | 0.3 ± 0.0
CCCCCCCOC(C)=O [Example 16, Heptyl acetate] | 3.5 ± 0.7 | 127.8 | 0.0 ± 0.0
CCCCCOC(C)=O [Example 14, Pentyl acetate] | 0.8 ± 0.1 | 12.1 | 0.1 ± 0.0
CC(=O)OCCC(C)C [Example 13, Isoamyl acetate] | 0.7 ± 0.0 | 3.4 | 0.2 ± 0.0
CCCCCOC(=O)CCCCC [Example 26, Pentyl caproate] | 3.5 ± 1.1 | 12.8 | 0.3 ± 0.1
CCCCCCCC(=O)OC [Example 27, Methyl caprylate] | 0.7 ± 0.1 | 8.3 | 0.1 ± 0.0
CCCCCC(=O)OCCC [Example 23, Propyl caproate] | 2.7 ± 1.1 | 12.9 | 0.2 ± 0.0
CCCCCC(=O)OCCCC [Example 24, Butyl caproate] | 4.1 ± 0.3 | 29.1 | 0.1 ± 0.0
CCC(=O)OCCC(C)C [Example 17, Isoamyl propionate] | 1.5 ± 0.5 | 12.4 | 0.1 ± 0.0
CCCCCCCC(=O)OCCC(C)C [Comparative Example 13, Isoamyl caprylate, reference compound] | 0.2 ± 0.1 | 0.6 | 0.3 ± 0.0
CCCCCCCCCCCC(=O)OCC [Comparative Example 14, Ethyl laurate, reference compound] | 0.2 ± 0.0 | 0.8 | 0.2 ± 0.0
CCOC(=O)CCC(C)C [Example 20, Ethyl 4-methylvalerate] | 2.0 ± 0.1 | 27.6 | 0.1 ± 0.0
